Measured values reported in PMC6478823, “A suite of phenotypic assays to ensure pipeline diversity when prioritizing drug-like Cryptosporidium growth inhibitors” (Nature Communications, 2019).
Several values for one entry are separate records, joined by “and”; a condition that tells them apart may be missing. Equal values may be shown once.

Key:
Assay type in all cases: cell-based, Cryptosporidium parvum
[1] = test system: C. parvum DMC1 expression; experiment: Sexual differentiation assay (DMC1 expression); details: for Asexual to sexual differentiation: Mean % DMC1 inhibition (normalized to host nuclei), Average: average of replicates; for Asexual to sexual differentiation: Mean % DMC1 inhibition (normalized to host nuclei), Replicate 1a: single replicate 1; for Asexual to sexual differentiation: Mean % DMC1 inhibition (normalized to host nuclei), Replicate 2a: single replicate 2; for Asexual to sexual differentiation: Mean % DMC1 inhibition (normalized to host nuclei), Replicate 3a: single replicate 3; for Asexual to sexual differentiation: Mean % DMC1 inhibition (normalized to host nuclei), Replicate 4a: single replicate 4; for 48 - 72 h DMC1 (asexual to sexual conversion): Mean % DMC1 inhibition (normalized to host nuclei): replicates 1-3 in separate columns
From the text: We utilized DMC1 as a marker of C. parvum sexual development, and used the anti-DMC1 monoclonal antibody to develop a moderate-throughput high-content microscopy assay for characterizing anticryptosporidial compounds (Fig. 6a). […] Therefore, in order to enable numerical comparison of the ability of compounds to block sexual development with moderate throughput, we adopted a strategy of reporting the percent inhibition of DMC1 expression by the previously determined EC90 of each compound in the standard asexual development assay (Fig. 6c and Supplementary Table 2).
Fig. 6 Assay to measure asexual-to-sexual-stage conversion. a Schematic of the experimental approach. […] For b and c the mean and SD combined from at least two biological replicates with four technical replicates per experiment are shown. […] At given time points post-infection, infected cells were washed 3 times with PBS containing 111 mM of D-galactose, fixed for 15 min at room temperature with 4% paraformaldehyde in PBS, and permeabilized with 0.25% triton X-100 in PBS for 10 min at 37 °C. Cells were then washed 3 times with PBS and blocked at least overnight at 4 °C with 1% BSA in PBS (blocking buffer). Cells were stained with monoclonal antibody (1H10G7), either neat culture supernatant or 12.8 µg/mL of purified IgG in blocking buffer for 1 h at 37 °C, followed by 2 washes with PBS. Cells were then co-stained with a 1:500 dilution (4 µg/mL) of Alexa Fluor 568 goat anti-mouse IgG (Invitrogen, catalog# A-11004) and 1.33 µg/mL fluorescein-labeled Vicia villosa lectin (Vector Laboratories, catalog# FL-1231) diluted in blocking buffer for 1 h at 37 °C. Stains were then removed and 0.09 mM Hoechst 33258 (AnaSpec, catalog# AS-83219) also diluted in blocking buffer was added for another 15 min at 37 °C, followed by 2 PBS washes and imaging on a Nikon Eclipse Ti2000 epifluorescence microscope run with NIS-Elements Advanced Research software (Nikon, USA) and equipped with an EXi blue fluorescent microscopy camera (QImaging, Canada). For enumerating parasites, tiled 2 × 2 images with 15% overlapping edges were taken using a 40 × dry objective (0.7 NA), and for finer details, Z stack images were acquired using a 60 × oil objective (1.4 NA). Lectin positive cells in focus were first counted, followed by DMC1.
For compound dose-response studies, the same assay was performed in 384-well plates and imaged using a 20 × dry objective (NA = 0.45). Tiled 4 × 4 to 6 × 6 images were taken. Images were analyzed using ImageJ software and the custom macro provided in Supplementary Method 2.

C. parvum [2] = details: compound at EC90; for Invasion Assay: Mean % Inhibition (parasites), Average: average of replicates; for Invasion Assay: Mean % Inhibition (parasites), Replicate 1a: single biological replicate 1; for Invasion Assay: Mean % Inhibition (parasites), Replicate 2a: single biological replicate 2
Method: The first step in infection is host cell invasion, which involves a complex process encompassing oocyst excystation, parasite motility, adhesion, and parasitophorous vacuole formation (Fig. 2a). Our strategy to assay for compounds affecting invasion was simply to expose C. parvum to compounds immediately after triggering excystation and throughout the invasion process, and then enumerate the parasite vacuoles after 3 h, prior to allowing the parasites to replicate (summarized in Fig. 2b).
Fig. 2 Invasion Assay. a Overview of life cycle stage investigated during the invasion assay. Representative TEM images of a C. parvum oocyst and HCT-8 cell shortly after infection (Scale bar = 500 nm). b Schematic of experimental design. […] Each point represents the mean and SD of at least two biological replicates with four technical replicates per experiment.
C. parvum invasion inhibition was measured by modifying the 48 h growth inhibition assay described above. […] In parallel, Iowa strain oocysts were excysted. […] Assay plates were incubated at 37 °C and 5% CO2 for 3 h.

C. parvum [3] = experiment: DNA replication assay (EdU incorporation); details: compound at EC90; for DNA Synthesis Assay: Mean % Inhibition of EdU-labeling (normalized to parasite numbers), Average: average of replicates; for DNA Synthesis Assay: Mean % Inhibition of EdU-labeling (normalized to parasite numbers), Replicate 1: single replicate 1; for DNA Synthesis Assay: Mean % Inhibition of EdU-labeling (normalized to parasite numbers), Replicate 2: single replicate 2; for DNA Synthesis Assay: Mean % Inhibition of EdU-labeling (normalized to parasite numbers), Replicate 3: single replicate 3; for DNA Synthesis Assay: Mean % Inhibition of EdU-labeling (normalized to parasite numbers), Replicate 4: single replicate 4
From the text: Following cell invasion, Cryptosporidium trophozoites grow and multiply to give rise to multinucleated type I meronts (Fig. 3a). The thymidine analog 5-ethynyl-2′-deoxyuridine (EdU) is efficiently incorporated into newly synthesized DNA, and can be detected using click chemistry. We used EdU to measure parasite intracellular DNA replication, as a surrogate for the more complex phenotype of intracellular growth and division. The approach for differentially labeling newly synthesized parasite DNA compared to host cell DNA was to take advantage of the fact that C. parvum replicates more quickly than the nearly confluent host cells. Thus, by adding EdU shortly before egress, it was possible to preferentially label replicating parasites (Fig. 3b, c). DNA staining with Hoechst labeled all of the host and parasite DNA, making it challenging to visualize and quantify parasite DNA. A simple DNA stain would also not distinguish pre-existing DNA from newly synthesized DNA (Fig. 3c). In contrast, EdU labeling only occurred with incorporation into newly synthesized DNA. Incorporated EdU was then easily stained for immunofluorescence and labeled parasites were quantified using high-content microscopy and an NIH ImageJ macro (Fig. 3c, DMSO condition). The […] hydroxyurea (10 mM), a known inhibitor of DNA replication, was used as a positive control for assay validation. […] Compounds with activity in this assay cannot be concluded to specifically target DNA replication, which is a complex phenotype.
Confluent HCT-8 cell monolayers in glass bottom plates were infected with C. parvum, and compounds were added at EC90 following invasion. At 9 h post-infection, 10 µM EdU was added, followed by incubation for another 2 h, and then washing, fixing, and staining for microscopy. […] 40 × dry objective (NA = 0.7); scale = 5 µm. Arrows indicate selected parasites with EdU-labeled DNA. d Quantification of EdU incorporation. […] Data are mean and SD of 2–5 biological replicates.
After incubation of cells with EdU for 2 h, cells were washed 3 times with PBS-D-gal and then fixed with PBS containing 4% PFA. Cells were then permeabilized and stained for EdU using the Click-iT® assay kit (Thermo Fisher Scientific, catalog# C10340) as per the manufacturer’s instructions. Cells were then imaged by focusing on parasites (note that the host cell nuclei are in a different focal plane) using a 40 × dry objective (0.7 NA) and EdU, and lectin numbers quantified using ImageJ software and the custom macro in Supplementary Method 1.

[4] = compound at asexual EC90, 48-72 h

Row | SMILES | Asexual to sexual differentiation: Mean % DMC1 inhibition (normalized to host nuclei), Average [1, 4] [%] | Asexual to sexual differentiation: Mean % DMC1 inhibition (normalized to host nuclei), Replicate 1a [1, 4] [%] | Asexual to sexual differentiation: Mean % DMC1 inhibition (normalized to host nuclei), Replicate 2a [1, 4] [%] | Invasion Assay: Mean % Inhibition (parasites), Average (C. parvum [2]) [%] | Invasion Assay: Mean % Inhibition (parasites), Replicate 1a (C. parvum [2]) [%] | Invasion Assay: Mean % Inhibition (parasites), Replicate 2a (C. parvum [2]) [%] | DNA Synthesis Assay: Mean % Inhibition of EdU-labeling (normalized to parasite numbers), Average (C. parvum [3]) [%] | DNA Synthesis Assay: Mean % Inhibition of EdU-labeling (normalized to parasite numbers), Replicate 1 (C. parvum [3]) [%] | DNA Synthesis Assay: Mean % Inhibition of EdU-labeling (normalized to parasite numbers), Replicate 2 (C. parvum [3]) [%] | DNA Synthesis Assay: Mean % Inhibition of EdU-labeling (normalized to parasite numbers), Replicate 3 (C. parvum [3]) [%] | DNA Synthesis Assay: Mean % Inhibition of EdU-labeling (normalized to parasite numbers), Replicate 4 (C. parvum [3]) [%] | Asexual to sexual differentiation: Mean % DMC1 inhibition (normalized to host nuclei), Replicate 3a [1, 4] [%] | Asexual to sexual differentiation: Mean % DMC1 inhibition (normalized to host nuclei), Replicate 4a [1, 4] [%] | other results
1 | C[C@H]1CCC[C@H](C[C@H]2Cc3cc(O)cc(O)c3C(=O)O2)O1 [Cladosporin] | 94.16 | 91.92 | 96.40 | -6.64 | 5.41 | -19 | 93.15 | 89.75 | 94.02 | 89.08 | 93.50 |  |  | DNA Synthesis Assay: Mean % Inhibition of EdU-labeling (normalized to parasite numbers), Replicate 5 (C. parvum [3]; single replicate 5): 99.40%
2 | COc1ccc(NC(=O)N2CCCCN3C(CN(C)C)C(c4ccc(C#Cc5ccccc5)cc4)C3C2)cc1 (centres unmarked) [BRD7929] | 63.11 | 38.81 | 78.93 | 0.40 | -20 | 20 | 93.39 | 85.08 | 95.72 | 99.38 |  | 84.43 | 50.27 | Invasion Assay: Mean % Inhibition (parasites), Replicate 3a (C. parvum [2]; single biological replicate 3): 1.85%
3 | CN(C)c1ccc(C(=C2C=CC(=[N+](C)C)C=C2)c2ccc(N(C)C)cc2)cc1 [Gentian Violet] | 34.34 | 8.16 | 38.90 | -6.62 | -1.27 | -12 | 47.40 | 62.13 | 74.23 | 5.82 |  | 55.96 |  | 
4 | O=C(Nc1ccc(Cl)cc1)N1CCN(c2ccc3nncn3n2)CC1 [D-1] | 83.01 | 87.55 | 90.87 | -25.16 | -22 | -29 | 23.98 | 20.68 | 7.95 | 36.52 | 30.78 | 72.73 | 66.31 | 48 - 72 h DMC1 (asexual to sexual conversion): Mean % DMC1 inhibition (normalized to host nuclei) ([1]; D-1 at log conc (µM) 0.16): -9.83% and -22.30% and 31.77%; 48 - 72 h DMC1 (asexual to sexual conversion): Mean % DMC1 inhibition (normalized to host nuclei) ([1]; D-1 at log conc (µM) 0.46): 54.19% and 44.15% and 54.54%; 48 - 72 h DMC1 (asexual to sexual conversion): Mean % DMC1 inhibition (normalized to host nuclei) ([1]; D-1 at log conc (µM) 0.58): 71.57% and 53.72% and 69.21%; 48 - 72 h DMC1 (asexual to sexual conversion): Mean % DMC1 inhibition (normalized to host nuclei) ([1]; D-1 at log conc (µM) 0.71): 84.32%; 48 - 72 h DMC1 (asexual to sexual conversion): Mean % DMC1 inhibition (normalized to host nuclei) ([1]; D-1 at log conc (µM) 1.18): 94.93% and 94.90% and 95.67%; 48 - 72 h DMC1 (asexual to sexual conversion): Mean % DMC1 inhibition (normalized to host nuclei) ([1]; D-1 at log conc (µM) 1.66): 95.75% and 98.23% and 93.36%; 48 - 72 h DMC1 (asexual to sexual conversion): Mean % DMC1 inhibition (normalized to host nuclei) ([1]; D-1 at log conc (µM) -0.14): 2.15% and -53.03% and -30.95%; 48 - 72 h DMC1 (asexual to sexual conversion): Mean % DMC1 inhibition (normalized to host nuclei) ([1]; D-1 at log conc (µM) -0.62): -16.25% and -49.91% and -40.61%; 48 - 72 h DMC1 (asexual to sexual conversion): Mean % DMC1 inhibition (normalized to host nuclei) ([1]; D-1 at log conc (µM) -1.10): -18.85% and -40.36% and -14.22%; activity in the DMC1 (sexual development) assay relative to asexual assay ([1]; compound added at 48 h, read at 72 h, result in words): equal potency before and after 48 h; Asexual to sexual differentiation: Mean % DMC1 inhibition (normalized to host nuclei), Replicate 5a ([1]; compound at asexual EC90, 48-72 h, single replicate 5): 89.27%; Asexual to sexual differentiation: Mean % DMC1 inhibition (normalized to host nuclei), Replicate 6a ([1]; compound at asexual EC90, 48-72 h, single replicate 6): 91.32%; EC50 ([1]; inhibition of DMC1 expression from 48 to 72 h, range in brackets, read-out: 48 − 72 h DMC1 (asexual to sexual conversion): EC50): 2400 nM
